Series [1] deals with Mus musculus. The experiment in a line: Neurotoxicity in 32 mA current-induced seizure albino CF1 mouse model at 100 mg/kg, ip measured after 1 hr. The conditions noted are these: in vivo. The series is classed as toxicity, organism-based. Set-up: dose 100 mg/kg, route intraperitoneal.
In series [2] the test system is Mus musculus. The series is described as follows: Anticonvulsant activity in albino CF1 mouse assessed as protection against 32 mA current-induced seizures at 100 mg/kg, ip measured after 1 hr. The series is classed as functional, organism-based. Set-up: dose 100 mg/kg.
Series [3] concerns Mus musculus. The series is described as follows: Neurotoxicity in 32 mA current-induced seizure albino CF1 mouse model at 100 mg/kg, ip measured after 0.25 hr. The series is classed as toxicity, organism-based. Set-up: dose 100 mg/kg, route intraperitoneal. Particulars: in vivo.
The subject of series [4] is Mus musculus. The series is described as follows: Neurotoxicity in albino CF1 mouse at 100 mg/kg, ip measured after 0.25 hr. The class given is toxicity, organism-based. Set-up: dose 100 mg/kg, route intraperitoneal. The conditions noted are these: in vivo.
Series [5] deals with Mus musculus. The series is described as follows: Neurotoxicity in albino CF1 mouse at 100 mg/kg, ip measured after 1 hr. The class given is toxicity, organism-based. Set-up: dose 100 mg/kg, route intraperitoneal. Particulars: in vivo.
The test system of series [6] is Mus musculus. The experiment in a line: Anticonvulsant activity in albino CF1 mouse assessed as protection against 32 mA current-induced seizures at 100 mg/kg, ip measured after 0.25 hr. The class given is functional, organism-based. Set-up: dose 100 mg/kg.
In series [7] the test system is Mus musculus. The series is described as follows: Anticonvulsant activity in albino CF1 mouse assessed as protection against maximal electroshock-induced seizures at 100 mg/kg, ip measured after 0.25 hr. The series is classed as functional, organism-based. Set-up: dose 100 mg/kg. On the technique in general: In the maximal electroshock model the usual endpoint is tonic extension of the hind limbs.

The subject of series [8] is Mus musculus. The experiment in a line: Anticonvulsant activity in albino CF1 mouse assessed as protection against maximal electroshock-induced seizures at 100 mg/kg, ip measured after 1 hr. The series is classed as functional, organism-based. Set-up: dose 100 mg/kg.
Series [9] has as its system Mus musculus. The series is described as follows: Neurotoxicity in 32 mA current-induced seizure albino CF1 mouse model at 100 mg/kg, ip measured after 0.5 hr. The class given is toxicity, organism-based. Set-up: dose 100 mg/kg, route intraperitoneal. Particulars: in vivo.
Series [10] deals with Mus musculus. The series is described as follows: Neurotoxicity in 32 mA current-induced seizure albino CF1 mouse model at 100 mg/kg, ip measured after 2 hrs. The series is classed as toxicity, organism-based. Set-up: dose 100 mg/kg, route intraperitoneal. The conditions noted are these: in vivo.
The test system of series [11] is Mus musculus. The experiment in a line: Anticonvulsant activity in albino CF1 mouse assessed as protection against 32 mA current-induced seizures at 100 mg/kg, ip measured after 2 hrs. The class given is functional, organism-based. Set-up: dose 100 mg/kg.
In series [12] the test system is Mus musculus. The experiment in a line: Anticonvulsant activity in albino CF1 mouse assessed as protection against 32 mA current-induced seizures at 100 mg/kg, ip measured after 0.5 hr. Set-up: dose 100 mg/kg. The class given is functional, organism-based.
The test system of series [13] is Mus musculus. The series is described as follows: Anticonvulsant activity in albino CF1 mouse assessed as protection against subcutaneous metrazol-induced seizures at 100 mg/kg, ip measured after 1 hr. Set-up: dose 100 mg/kg. The series is classed as functional, organism-based.
Series [14] deals with Mus musculus. The experiment in a line: Anticonvulsant activity in albino CF1 mouse assessed as protection against subcutaneous metrazol-induced seizures at 100 mg/kg, ip measured after 0.5 hr. The class given is functional, organism-based. Set-up: dose 100 mg/kg.
In series [15] the test system is Mus musculus. The experiment in a line: Neurotoxicity in albino CF1 mouse at 100 mg/kg, ip measured after 4 hrs. The series is classed as toxicity, organism-based. Set-up: dose 100 mg/kg, route intraperitoneal. Particulars: in vivo.
The test system of series [16] is Mus musculus. The experiment in a line: Neurotoxicity in albino CF1 mouse at 100 mg/kg, ip measured after 0.5 hr. The series is classed as toxicity, organism-based. Particulars: in vivo. Set-up: dose 100 mg/kg, route intraperitoneal.
The test system of series [17] is Mus musculus. The experiment in a line: Anticonvulsant activity in albino CF1 mouse assessed as protection against maximal electroshock-induced seizures at 100 mg/kg, ip measured after 0.5 hr. The class given is functional, organism-based. Set-up: dose 100 mg/kg.
Series [18] relates to Mus musculus. The experiment in a line: Anticonvulsant activity in albino CF1 mouse assessed as protection against 32 mA current-induced seizures at 100 mg/kg, ip measured after 4 hrs. Set-up: dose 100 mg/kg. The series is classed as functional, organism-based.
Series [19] has as its system Mus musculus. The series is described as follows: Anticonvulsant activity in albino CF1 mouse assessed as protection against subcutaneous metrazol-induced seizures at 100 mg/kg, ip measured after 4 hrs. The class given is functional, organism-based. Set-up: dose 100 mg/kg.
For series [20], the system named is Mus musculus. The series is described as follows: Anticonvulsant activity in albino CF1 mouse assessed as protection against subcutaneous metrazol-induced seizures at 100 mg/kg, ip measured after 0.25 hr. The series is classed as functional, organism-based. Set-up: dose 100 mg/kg.
The test system of series [21] is Mus musculus. The series is described as follows: Anticonvulsant activity in albino CF1 mouse assessed as protection against maximal electroshock-induced seizures at 100 mg/kg, ip measured after 4 hrs. Set-up: dose 100 mg/kg. The class given is functional, organism-based.
For series [22], the system named is Mus musculus. The series is described as follows: Neurotoxicity in 32 mA current-induced seizure albino CF1 mouse model at 100 mg/kg, ip measured after 4 hrs. The series is classed as toxicity, organism-based. Set-up: dose 100 mg/kg, route intraperitoneal. Particulars: in vivo.

Active and inactive are the calls of the source. No cut-off for these calls is given here.

The source of these data is ChEMBL document CHEMBL3352057, “Novel fluorinated pyrrolo[1,2-a]pyrazine-2,6-dione derivatives: synthesis and anticonvulsant evaluation in animal models of epilepsy” (Bioorg Med Chem, 2014).

`O=C1NC(=O)[C@@H](c2cccc(C(F)(F)F)c2)N2CCCC[C@@H]12`: the Activity result in the series on Mus musculus [1], in the series on Mus musculus [3], with Mus musculus [4] and in the series on Mus musculus [5] was “Non-toxic” throughout. The result in the series on Mus musculus [2], with Mus musculus [6], in the series on Mus musculus [7] and with Mus musculus [8] was inactive.

Regarding `O=C1NC(=O)[C@H](c2cccc(C(F)(F)F)c2)N2CCC[C@H]12`, the Activity result in the series with Mus musculus [9], in the series with Mus musculus [10], in the series with Mus musculus [1], in the series on Mus musculus [15], with Mus musculus [16] and with Mus musculus [3] was “Non-toxic” in each case. Moreover, the Activity entry in the series with Mus musculus [4], in the series on Mus musculus [5] and in the series on Mus musculus [22] was “Non-toxic” throughout. Further, the outcome in the series with Mus musculus [11], in the series with Mus musculus [12], in the series on Mus musculus [13], with Mus musculus [2], in the series with Mus musculus [14] and with Mus musculus [17] was inactive. In addition, the outcome in the series on Mus musculus [18], in the series on Mus musculus [6], in the series on Mus musculus [19], in the series with Mus musculus [20], in the series with Mus musculus [7] and in the series on Mus musculus [21] was inactive. Besides, in the series on Mus musculus [8], the result was inactive.

Regarding `O=C1NC(=O)[C@@H]2CCCN2[C@H]1c1c(F)cccc1Cl` (mixture of isomers), the Activity result in the series with Mus musculus [9], in the series with Mus musculus [10], in the series on Mus musculus [1], in the series with Mus musculus [15], in the series on Mus musculus [16] and with Mus musculus [3] was “Non-toxic” each time. Besides, the Activity result in the series with Mus musculus [4], with Mus musculus [5] and in the series on Mus musculus [22] was “Non-toxic” throughout. Further, the result with Mus musculus [11], in the series with Mus musculus [12], with Mus musculus [13], in the series with Mus musculus [2], in the series on Mus musculus [14] and in the series with Mus musculus [17] was inactive. For the same compound, the outcome in the series on Mus musculus [18], with Mus musculus [6], in the series on Mus musculus [19], in the series on Mus musculus [20], with Mus musculus [7] and in the series on Mus musculus [21] was inactive. In the series on Mus musculus [8], the outcome was inactive.

Consider `O=C1NC(=O)[C@@H]2CCCN2[C@H]1c1c(F)cccc1F` (mixture of isomers), for which the Activity result in the series with Mus musculus [9], in the series on Mus musculus [10], in the series with Mus musculus [1], in the series on Mus musculus [15], in the series with Mus musculus [16] and in the series on Mus musculus [3] was “Non-toxic” in each case. Also, the Activity result in the series on Mus musculus [4], in the series with Mus musculus [5] and with Mus musculus [22] was “Non-toxic” throughout. Also, the outcome in the series on Mus musculus [11], in the series on Mus musculus [12], in the series with Mus musculus [13], with Mus musculus [2], in the series on Mus musculus [14] and with Mus musculus [17] was inactive. Also, the result with Mus musculus [18], in the series on Mus musculus [19], in the series with Mus musculus [20], in the series with Mus musculus [21] and in the series with Mus musculus [8] was inactive. The result in the series on Mus musculus [6] and with Mus musculus [7] was Active.

With `O=C1NC(=O)[C@H](c2cccc(C(F)(F)F)c2)N2CCCC[C@H]12`, the Activity result in the series on Mus musculus [1], in the series on Mus musculus [3], in the series on Mus musculus [4] and in the series on Mus musculus [5] was “Non-toxic” each time. Further, the result with Mus musculus [13], in the series on Mus musculus [2], in the series on Mus musculus [6], in the series with Mus musculus [20], in the series on Mus musculus [7] and in the series on Mus musculus [8] was inactive.

Take `O=C1NC(=O)[C@@H]2CCCN2[C@H]1c1cc(F)cc(F)c1`: the Activity entry in the series with Mus musculus [9], with Mus musculus [10], in the series with Mus musculus [1], in the series on Mus musculus [15], with Mus musculus [16] and in the series with Mus musculus [3] was “Non-toxic” each time. In addition, the Activity entry in the series with Mus musculus [4], in the series with Mus musculus [5] and with Mus musculus [22] was “Non-toxic” in each case. Also, the result with Mus musculus [11], with Mus musculus [13], in the series on Mus musculus [2], in the series with Mus musculus [17], in the series with Mus musculus [18] and in the series with Mus musculus [19] was inactive. For the same compound, the result in the series on Mus musculus [21] and in the series with Mus musculus [8] was inactive. In addition, the result in the series with Mus musculus [12], with Mus musculus [14], in the series on Mus musculus [6], in the series on Mus musculus [20] and in the series with Mus musculus [7] was Active.

With `Cl.O=C1NC(=O)[C@@H](c2cccc(C(F)(F)F)c2)N2CCC[C@H]12`, the Activity result with Mus musculus [9], in the series on Mus musculus [10], with Mus musculus [1], with Mus musculus [15], in the series on Mus musculus [16] and with Mus musculus [3] was “Non-toxic” each time. For the same compound, the Activity result in the series with Mus musculus [4], with Mus musculus [5] and in the series with Mus musculus [22] was “Non-toxic” in each case. Besides, the outcome in the series with Mus musculus [11], with Mus musculus [17], in the series on Mus musculus [18], with Mus musculus [21] and in the series on Mus musculus [8] was inactive. The result in the series on Mus musculus [12], in the series with Mus musculus [2], in the series with Mus musculus [6] and with Mus musculus [7] was Active.

With `O=C1NC(=O)[C@@H]2CCCN2[C@H]1c1ccccc1C(F)(F)F`, the Activity result in the series on Mus musculus [9], in the series on Mus musculus [10], in the series on Mus musculus [1], with Mus musculus [15], in the series with Mus musculus [16] and in the series on Mus musculus [3] was “Non-toxic” throughout. The Activity result with Mus musculus [4], in the series on Mus musculus [5] and in the series with Mus musculus [22] was “Non-toxic” in each case. Besides, the result in the series with Mus musculus [11], in the series with Mus musculus [12], in the series on Mus musculus [13], in the series on Mus musculus [2], in the series on Mus musculus [14] and with Mus musculus [17] was inactive. In addition, the outcome with Mus musculus [18], in the series with Mus musculus [6], with Mus musculus [19], in the series with Mus musculus [20], in the series with Mus musculus [7] and in the series on Mus musculus [21] was inactive. The result in the series with Mus musculus [8] was inactive.
